The results in this text go back to publication PMC4116177, “Rational Modification of Estrogen Receptor by Combination of Computational and Experimental Analysis” (PLoS ONE, 2014).

Numbering of substitutions follows the chain as printed.

One series concerns the target T1, M421F-ERα ^LBD (Homo sapiens, UniProt P03372, M421F).
T1 construct: The polypeptide fragment 303-547 of the human ERα has been thus cloned; made in house; host or cells: E. coli Rosetta 2(DE3)pLysS
T1 sequence (P03372 303-547 M421F): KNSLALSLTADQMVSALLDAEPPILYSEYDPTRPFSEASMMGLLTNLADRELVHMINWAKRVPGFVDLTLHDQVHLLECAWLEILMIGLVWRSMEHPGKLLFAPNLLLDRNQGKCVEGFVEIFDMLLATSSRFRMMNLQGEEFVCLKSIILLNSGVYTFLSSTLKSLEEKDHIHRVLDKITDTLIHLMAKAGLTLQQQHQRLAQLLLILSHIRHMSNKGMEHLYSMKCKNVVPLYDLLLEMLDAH
Description: PolarScreen competitive binding assay (fluorescence polarization) with M421F mutant. The protocol: (§1) The PolarScreen assay was used to test the ligand binding affinity of wt-ERα ^LBD and its mutants towards different classes of estrogen disrupting compounds.
(§2) Each compound was tested in a range of 12 concentrations with the ER receptors (Figure 5). The compounds concentrations (X axis) were plotted in a logarithmic scale against the Polarization values (Y axis). The plot of compounds concentrations against Polarization were fitted with a one site competition […] logistic curve (see Materials and Methods for further details).
(§3) To test the binding affinity of the recombinant receptor for EDCs we used the competitive binding assay developed by Life Technologies for ERα, the PolarScreen Estrogen Receptor-α Competitor Green Assay.
(§4) The full length ERα provided with the kit was replaced by our recombinant ERα ^LBD. In short, wt or mutant ERα ^LBD are added to the Fluormone and incubated at 4°C for 45 minutes to form the receptor-Fluormone complex. This complex is then mixed and incubated at 25°C for 2 h with the individual EDCs and the intensity of the fluorescence polarization signal (directly proportional to the amount of Fluormone bound to the protein) measured. The addition of competitors displaces the Fluormone from the ERα ^LBD receptor, resulting in a decreased fluorescence signal. The fluorescence polarization anisotropy signal (P) is read using an Infinite 200 Pro multimode plate reader from Tecan and calculated with the following equation: [drawing 1]
The P data (y) were fitted against the competitor concentrations (x) with a typical one site competition three parameters logistic curve: [drawing 2]
LogIC50 = Log of the concentration of test compound required to reduce the maximum polarization value by 50%. All the resulting IC50 values are obtained by the average of at least four different experiments.

A further series has as its target T2, wt-ERα ^LBD (Homo sapiens, UniProt P03372).
T2 construct: The polypeptide fragment 303-547 of the human ERα has been thus cloned; made in house; host or cells: E. coli Rosetta 2(DE3)pLysS
T2 sequence (P03372 303-547): T1 sequence (P03372 303-547 M421F) with F119M
In words: PolarScreen competitive binding assay (fluorescence polarization) with wt-ERα LBD. The protocol: as §1, §2, §3
as §4, with “In short, wt or mutant ERα ^LBD are added to the Fluormone and incubated at 4°C for 45 minutes to form the receptor-Fluormone complex.” left out, “1] […]” for “1]”
A general note: In fluorescence polarisation assays a small probe gives low polarisation when free and higher when bound to something large.

Another series concerns the target T3, M421I-ERα ^LBD (Homo sapiens, UniProt P03372, M421I).
T3 construct: The polypeptide fragment 303-547 of the human ERα has been thus cloned; made in house; host or cells: E. coli Rosetta 2(DE3)pLysS
T3 sequence (P03372 303-547 M421I): T1 sequence (P03372 303-547 M421F) with F119I
In words: PolarScreen competitive binding assay (fluorescence polarization) with M421I mutant. As for the experimental part:
as §1, §2, §3
as §4, with “In short, wt or mutant ERα ^LBD are added to the Fluormone and incubated at 4°C for 45 minutes to form the receptor-Fluormone complex.” left out, “1] […]” for “1]”

Series [1] can be described thus: Thermal unfolding followed by CD spectroscopy at 222 nm. The format is physicochemical. As for the experimental part:
The thermal stability of the different ERs was assessed by following the protein thermal unfolding between 25 and 90°C with CD spectroscopy (Figures 3D, 3E and 3F). The unfolding process is not reversible: by cooling back the samples to 25°C only around 50% of the original secondary structure of the protein is recovered (data not shown). By fitting the experimental data with a Boltzmann-type equation it was possible to calculate melting temperature (Tm) values of 59.5±1.5°C, 65.8±1.4°C, and 61.5±1.3°C for the wt-ERα ^LBD, M421F-ERα ^LBD, and M421I-ERα ^LBD proteins, respectively.
Circular dichroism spectra were recorded with a J750 Circular dichroism spectrometer from Jasco interfaced with a Peltier temperature control unit with 1 mm path length cuvette. Analysis of the far-UV region (185–260 nm) was used to investigate the secondary structure and the folding of the protein. CD spectra were analyzed with the DichroWeb online software, by means of the CDSSTR program. Thermal denaturation experiments were performed by monitoring the circular dichroism at 222 nm while changing the temperature from 25 to 90°C (1°C/min) and backward. Reference spectra were collected for the buffers in which proteins were dissolved. Denaturation curves were analyzed assuming a two-state unfolding model and melting temperature (Tm) was calculated for every mutant. […]

Take `CC(C)(c1ccc(O)cc1)c1ccc(O)cc1` [Bisphenol-A]: the “binds more strongly to M421F-ERα ^LBD than to wt-ERα ^LBD” value at M421F-ERα ^LBD (from IC50 values, M421F versus wt) is on record as “approximately 6 times”.

As to `CCCCCCCCCc1ccc(O)cc1` [4-Nonylphenol], the IC50 on wt-ERα ^LBD amounted to 8 ± 1 µM; on M421I-ERα ^LBD, 60 ± 30 µM; at M421F-ERα ^LBD, 4 ± 2 µM. The “IC50 of M421F-ERα ^LBD compared to wt-ERα ^LBD (in words)” value on M421F-ERα ^LBD (M421F versus wt) was “twice as strong”.

B1: wt-ERα ^LBD: recombinant His6-tagged polypeptide fragment 303-547 (ligand binding domain) of human ERα, wild type (protein, UniProt P03372 303-547, looked up, fragment)
chain: T1 sequence (P03372 303-547 M421F) with F119M
modifications: ligand binding domain His6 tag
For B1, in series [1] (CD at 222 nm, 25 to 90°C, Boltzmann-type fit), the “melting temperature (Tm)” value amounted to 59.5±1.5 °C. Moreover, the “melting temperature higher than that previously reported for the full-length ERα protein” value in series [1] (versus full-length ERα) is “about 20 °C”.

A word on the IC50: it is the midpoint of a concentration-inhibition curve. A high value points to weaker potency.
